# Reference: patent US20240115530A1, “ADMINISTRATION OF BAIBA TO INCREASE BENEFIT OF LOSING WEIGHT OF INTERMITTENT FASTING” (NANJING NUTRABUILDING BIO-TECH CO., LTD., priority 2021, published 2024)
# Columns and labels:
# Assay type in all cases: in vivo, C57BL/6 male mice
# [1] = Body weight reduction in HFD-fed obese mice with or without EODF; settings: 150 mg/kg daily per oral, 8-week treatment, vs same regimen without L-BAIBA
# Description: 50 C57BL/6 male mice aged about 8 weeks, are randomly assigned to five study groups (GA, GB1, GB2, GB3, GB4) of ten mice each (two cages, 1 cage, n=5 per condition). Each animal's body weight is measured by a weight scale and recorded.
# The total experimental time is 19 weeks, including two periods: an eleven-week induction period and a subsequent eight-week treatment period.
# (§1) Each study group consisted of ten animals, and treatment details of the individual study groups are given below: • Group A (GA, NC): Normal mice, maintained on normal diet for 11 weeks, receiving neither EODF nor L-BAIBA treatment. • Group B1 (GB1, HFD): Obese mice, maintained on high fat diet (HFD) for 11 weeks, receiving neither EODF nor L-BAIBA treatment. • Group B2 (GB2, HFD+EODF): Obese mice, maintained on HFD for 11 weeks, receiving only EODF and no L-BAIBA treatment. • Group B3 (GB3, HFD+BAIBA): Obese mice, maintained on HFD for 11 weeks, receiving only L-BAIBA treatment and no EODF. • Group B4 (GB4, HFD+EODF+BAIBA): Obese mice, maintained on HFD for 11 weeks, receiving L-BAIBA treatment and EODF combination.
# L-BAIBA was administered daily via per oral route according to a level of 150 mg/kg body weight. […]
# Each mouse's body weight is measured weekly during the study at 1200 h. FIG. 1 is the average body weight of mice in all test groups (Body weight were recorded from the beginning of the experiment). […]
# [2] = Serum insulin and leptin by ELISA in HFD-fed obese mice; settings: 150 mg/kg daily per oral, end of treatment period, with or without EODF, vs same regimen without L-BAIBA
# Text: as §1
# (§2) L-BAIBA was administered daily via per oral route according to a level of 150 mg/kg body weight. Animals not receiving L-BAIBA were given orally with ultrapure water.
# (§3) Intermittent fasting model: HFD fed male mice in groups at 8 weeks of age were randomly assigned into either ad libitum, or every-other-day-fasting (EODF) groups on a per cage basis. All cage bedding was changed to paper bedding for the duration of the model. […]
# Serum levels of insulin and leptin were determined at the end of the treatment period by standard ELISA methods. […]
# [3] = Blood lipid biochemistry (TG, TCHO, LDL, VLDL) in HFD-fed obese mice; settings: 150 mg/kg daily per oral, end of study, with or without EODF, vs same regimen without L-BAIBA
# Text: as §1, §2
# Intermittent fasting model: HFD fed male mice in groups at 8 weeks of age were randomly assigned into either ad libitum, or every-other-day-fasting (EODF) groups on a per cage basis. All cage bedding was changed to paper bedding for the duration of the model. Mice in the EODF group had total deprivation of food and ad libitum access to water from 1200 h-1200 h on alternate days with ad libitum food and water access. EODF cages were changed upon induction of fasting. Ad libitum control mice cages were changed every other day with fresh food provided.
# 50 C57BL/6 male mice aged about 8 weeks, are randomly assigned to five study groups (GA, GB1, GB2, GB3, GB4) of ten mice each (two cages, 1 cage, n=5 per condition).
# The same procedures were conducted as above-discussed Example 1.
# At the end of the study, blood was collected from all test groups and a various clinical parameter were determined: triglyceride (TG), total cholesterol (TCHO), low-density lipoprotein (LDL) and very low-density lipoprotein (VLDL). FIG. 2a-2d are the results of TG, TCHO, LDL and VLDL in all test groups, respectively. […] This effect persists for as long as the test protocol is continued.
# [4] = Blood glucose and oral glucose tolerance test (OGTT) in HFD-fed obese mice; settings: 150 mg/kg daily per oral, vs same regimen without L-BAIBA
# Text: as §1, §2, §3
# Glucose levels in blood were measured weekly (week 12-19) on the starting day of every week before the day's EODF and L-BAIBA dosing activities. […]
structure (smiles),measurement,setting,value
"C[C@@H](CN)C(=O)O [L-BAIBA, L-β-aminoisobutyric acid]",body weight,[1],greater reduction in body weight
same,insulin resistance (serum insulin),[2],improved
same,leptin resistance (serum leptin),[2],improved leptin resistance
same,low-density lipoprotein (LDL) level in blood,[3],lower levels
same,total cholesterol (TCHO) level in blood,[3],lower levels
same,triglyceride (TG) level in blood,[3],lower levels
same,very low-density lipoprotein (VLDL) level in blood,[3],lower levels
same,glucose tolerance (OGTT),"[4]; OGTT after the treatment period, with or without EODF",better glucose tolerance
same,blood glucose level,"[4]; measured weekly week 12-19, with or without EODF",greater reduction in blood glucose level
